One data set relates to sheep red blood cells. Nature of the data set: Hemolysis measurements, release of hemoglobin. The class given is cell-based. As for the experimental part:
Sheep Red Blood Cells, 10%, in saline (Innovative Research, Novi, Mich.), were diluted in saline (pH 7.4) to a concentration of 4%, which corresponds to 4×10^7 cells/mL. All measurements were carried out in duplicate. Solutions of Amphotericin B (Sigma-Aldrich) were prepared by adding 10 μL of a DMSO solution containing a given concentration of the antibiotic (i.e., ranging from 0.2 mM to 50 mM) to 490 μL of PBS. After the resulting solution was vortex mixed for 30 seconds (s) it was incubated at 37° C. for 15 min. The resulting solution of antibiotic (500 μL) was then mixed with 500 μL of the 4% erythrocyte dispersion at 37° C. in a 1 mL plastic centrifuge vial to give a dispersion that was vortex mixed at slow rate for 5 s. After 1 h of incubation at 37° C., all samples were centrifuged (1500 g, Eppendorf centrifuge 5415C, 5000 rpm) at rt for 5 min. The supernatant (˜0.7 mL) from each plastic vial was carefully separated from sediment using a disposable glass pipette and quickly transferred to test tube. A volume of 50 μL of this supernatant was then transferred to a UV cell containing 500 μL of PBS that was maintained at 37° C. The UV spectrum was then scanned (450-650 nm) and the absorbance at 575 nm used to determine the extent of hemolysis. The extent of 0% and 100% of hemolysis was obtained from A575 values of experiments that were run in absence of AmphB (control, [A575,]o) and in presence, 100 μM AmphB ([A575]max), respectively.

The subject of another data set is C. gatti. Put plainly: Antifungal activities, MIC/MFC. The class given is cell-based. As for the experimental part:
(§1) A similar sequence of reactions was carried out using lysine dicholamide in place of cholic acid afforded VJ-1147 of Table 2. To assess the antifungal properties of the diwalled VJ-1138 (Table 2) and 2a of Table 3, their in vitro activities were examined against four clinically relevant microbes, i.e., C. albicans, C. glabrata, C. neoformans, and C. gatti (Table 4).
(§2) Minimum inhibitory concentrations (MIC) and minimum fungicidal concentrations (MFC) are the lowest concentrations that are required for completely inhibiting growth, and killing at least 99% of the fungi, respectively.
(§3) The above molecules were tested for antifungal activity. Minimum inhibitory concentrations (MIC) and minimum fungicidal concentrations (MFC) are the lowest concentrations that are required for completely inhibiting growth, and killing at least 99% of the fungi, respectively. As is apparent from Table 4 below, there is a general trend; i.e., increased antifungal activity is observed as the length of the hydrocarbon chain that separates the facial amphiphile from the Amphotericin B moiety is decreased.

The next data set relates to C. albicans. Put plainly: Antifungal activities, MIC/MFC. The class given is cell-based. As to the method: as §1, §2, §3
A further data set deals with C. neoformans. Nature of the data set: Antifungal activities, MIC/MFC. The class given is cell-based. As to the method: as §1, §2, §3
A further data set concerns C. glabrata. Nature of the data set: Antifungal activities, MIC/MFC. The class given is cell-based. As to the method: as §1, §2, §3
A further data set has as its system HEK293T cells. Nature of the data set: Inhibition of cell growth, MTT cell viability. The class given is cell-based, human. The following applies: varying concentrations; FIG. 11. As for the experimental part: Human embryonic kidney HEK293 cells were cultured in Dulbecco's modified Eagle's medium (DMEM supplemented with 10% FBS, 100 U/mL penicillin, and 0.1 mg/mL SI-10 streptomycin) in a humidified atmosphere of 5% CO2 at 37° C.
HEK293T cells were seeded in 96-well plates at a density of 6,000 cells/well and incubated overnight. Before treatment, compounds aliquots were solubilized in DMSO to obtain 10 mM stock solutions. Appropriate volumes of these stock solutions were added to DMEM media so the final concentration of DMSO is equal to 1%. After removal of cell media, 50 μL of treatment solutions were added to each well and incubated at 37° C. for 2 h. After treatment, the media was removed, and 100 μL of complete medium was added to each well before returning the plate to the incubator. Cell viability was determined after 72 h using the colorimetric MTT assay. Briefly, 10 μL of a 5 mg/mL MTT stock solution was added to the treated cells and incubated for 2 h at 37° C. The resulting formazan crystals were solubilized in 200 μL of DMSO, and the absorbance was measured at 580 nm using an Infinite 200 PRO microplate reader (Tecan). Cell viability was calculated against control cells treated with the vehicle in DMEM.

In a further data set the test system is Cryptococcus neoformans. Nature of the data set: Cryptococcosis mouse model, brain and lung tissue burden. The class given is in vivo, mice. To be noted: after intravenous administration. As to the method:
Cryptococcosis mice are infected via tail vein injection of 5×10^4 C. neoformans cells. Inocula are verified by quantitative culture. Animals are identified by temporary ink marking, assigned to groups of 10 mice. Test compounds will be dosed starting on the day of infection. Initial studies will employ i.v., i.p. or oral (gavage) dosing (depending on the compound and the vehicle). Antifungal compounds are given for a period of 7 days. […] On day 8, the lung and brain are evaluated by quantitative culture per gram of tissue, by weighing organs and culturing serially diluted homogenates. These tissue burden studies permit detection of drug efficacy that may not be evident by using a survival endpoint.
The mice were then sacrificed 7 days later for quantitative culture of brain and lung, with cryptococcal cells per gram tissue being expressed as logarithmic values (log 10). Mean values for each group were compared using the t-test.

For data set [1], the system named is C. albicans, C. glabrata, C. neoformans, and C. gatti. Nature of the data set: In vitro antifungal activity, general statements on the four microbes. The class given is cell-based. To be noted: at 11 μM. As for the experimental part:
as §1, §2

The mark [2] stands for this setting: at concentrations as high as 400 μM, 37° C. in PBS, pH 7.4.
Setting [3] is: summary, no concentration stated.
[4] abbreviates: second Table 4 (Example 4), C. gatti.
Setting [5] is: second Table 4 (Example 4), C. albicans.
The mark [6] stands for this setting: second Table 4 (Example 4), C. neoformans.
The mark [7] stands for this setting: second Table 4 (Example 4), C. glabrata.

Values after ≈ are worked out from the molar mass of the structure shown. Like-named read-outs stand apart in the source and are kept apart here.

For the molecule `CC1OC(O[C@H]2/C=C/C=C/C=C/C=C/C=C/C=C/C=C/[C@H](C)[C@@H](O)[C@@H](C)[C@H](C)OC(=O)C[C@H](O)C[C@H](O)CC[C@@H](O)[C@H](O)C[C@H](O)C[C@]3(O)C[C@H](O)[C@@H](C(=O)NCCCCCCCCCCNC(=O)CC[C@@H](C)C4CCC5C6C(O)CC7CC(O)CCC7(C)C6CC(O)C54C)[C@H](C2)O3)C(O)C(N)C1O` (stereo partly drawn) [YYM-71], the values for the hemolytic activity entry in the data set on sheep red blood cells (setting [2]) and with sheep red blood cells (setting [3]) were “negligible hemolytic activities” and “negligible hemolytic activity”, respectively. Besides, the MFC with C. gatti (setting [4]) and against C. neoformans (setting [6]) was over 16 µg/mL in each case. Moreover, the MIC with C. gatti (setting [4]) is 1 µg/mL; against C. albicans (setting [5]) it was >16/— μg/mL; against C. neoformans (setting [6]), 2 µg/mL; in the data set on C. glabrata (setting [7]) it was >16/— μg/mL. The “toxicity towards HEK293 cells” value in the data set with HEK293T cells was “negligible cytotoxicity”.
For the molecule `CC1OC(O[C@H]2/C=C/C=C/C=C/C=C/C=C/C=C/C=C/[C@H](C)[C@@H](O)[C@@H](C)[C@H](C)OC(=O)C[C@H](O)C[C@H](O)CC[C@@H](O)[C@H](O)C[C@H](O)C[C@]3(O)C[C@H](O)[C@@H](C(=O)NCCCCCCNC(=O)CC[C@@H](C)C4CCC5C6C(O)CC7CC(O)CCC7(C)C6CC(O)C54C)[C@H](C2)O3)C(O)C(N)C1O` (stereo partly drawn) [YYM-72], in the data set on sheep red blood cells (up to concentrations of 500 μM, 37° C. in PBS, pH 7.4), the hemolytic activity entry is “negligible hemolytic activity”.
With `CC1OC(O[C@H]2/C=C/C=C/C=C/C=C/C=C/C=C/C=C/[C@H](C)[C@@H](O)[C@@H](C)[C@H](C)OC(=O)C[C@H](O)C[C@H](O)CC[C@@H](O)[C@H](O)C[C@H](O)C[C@]3(O)C[C@H](O)[C@@H](C(=O)NCCSSCCC(=O)N(CCCCNC(=O)C(CCCCNC(=O)CC[C@@H](C)C4CCC5C6C(OS(=O)(=O)[O-])CC7CC(OS(=O)(=O)[O-])CCC7(C)C6CC(OS(=O)(=O)[O-])C54C)NC(=O)CC[C@@H](C)C4CCC5C6C(OS(=O)(=O)[O-])CC7CC(OS(=O)(=O)[O-])CCC7(C)C6CC(OS(=O)(=O)[O-])C54C)CCCNC(=O)C(CCCCNC(=O)CC[C@@H](C)C4CCC5C6C(OS(=O)(=O)[O-])CC7CC(OS(=O)(=O)[O-])CCC7(C)C6CC(OS(=O)(=O)[O-])C54C)NC(=O)CC[C@@H](C)C4CCC5C6C(OS(=O)(=O)[O-])CC7CC(OS(=O)(=O)[O-])CCC7(C)C6CC(OS(=O)(=O)[O-])C54C)[C@H](C2)O3)C(O)C(N)C1O.[Na+].[Na+].[Na+].[Na+].[Na+].[Na+].[Na+].[Na+].[Na+].[Na+].[Na+].[Na+]` (stereo partly drawn) [compound 10], in the data set with Cryptococcus neoformans, the “activity in brain and lung tissue” value is listed as “negligible activity”. The “minimum inhibitory concentration (MIC in μM) relative to AmphB” value in the data set on C. gatti (C. gatti, 4th value in brackets) is over 426 µM; in the data set on C. albicans (C. albicans, 1st value in brackets), over 426 µM; with C. neoformans (C. neoformans, 3rd value in brackets) it was over 426 µM; in the data set with C. glabrata (C. glabrata, 2nd value in brackets), over 426 µM.
As to `CC1OC(O[C@H]2/C=C/C=C/C=C/C=C/C=C/C=C/C=C/[C@H](C)[C@@H](O)[C@@H](C)[C@H](C)OC(=O)C[C@H](O)C[C@H](O)CC[C@@H](O)[C@H](O)C[C@H](O)C[C@]3(O)C[C@H](O)[C@@H](C(=O)NCCCCCCCCNC(=O)CC[C@@H](C)C4CCC5C6C(O)CC7CC(O)CCC7(C)C6CC(O)C54C)[C@H](C2)O3)C(O)C(N)C1O` (stereo partly drawn) [YYM-69], the hemolytic activity entry is “negligible hemolytic activities” with sheep red blood cells (setting [2]) and “negligible hemolytic activity” with sheep red blood cells (setting [3]). Besides, the MFC in the data set on C. gatti (setting [4]), with C. albicans (setting [5]) and in the data set with C. neoformans (setting [6]) was 2 µg/mL (≈ 1.39 µM) in each case. For the same molecule, the MIC was 1 µg/mL with C. gatti (setting [4]), 2 µg/mL with C. albicans (setting [5]), 1 µg/mL in the data set on C. neoformans (setting [6]) and >16/— μg/mL against C. glabrata (setting [7]). Moreover, the “toxicity towards HEK293 cells” value in the data set with HEK293T cells was “negligible cytotoxicity”.
As for `CC1OC(O[C@H]2/C=C/C=C/C=C/C=C/C=C/C=C/C=C/[C@H](C)[C@@H](O)[C@@H](C)[C@H](C)OC(=O)C[C@H](O)C[C@H](O)CC[C@@H](O)[C@H](O)C[C@H](O)C[C@]3(O)C[C@H](O)[C@@H](C(=O)NCCCCCCCC(=O)N(CCCCNC(=O)C(CCCCNC(=O)CC[C@@H](C)C4CCC5C6C(O)CC7CC(O)CCC7(C)C6CC(O)C54C)NC(=O)CC[C@@H](C)C4CCC5C6C(O)CC7CC(O)CCC7(C)C6CC(O)C54C)CCCNC(=O)C(CCCCNC(=O)CC[C@@H](C)C4CCC5C6C(O)CC7CC(O)CCC7(C)C6CC(O)C54C)NC(=O)CC[C@@H](C)C4CCC5C6C(O)CC7CC(O)CCC7(C)C6CC(O)C54C)[C@H](C2)O3)C(O)C(N)C1O` (stereo partly drawn) [VJ-1155], the antifungal activity result in data set [1] is “no antifungal activity”. Besides, the MIC in the data set on C. gatti, against C. albicans (Candida albicans), against C. neoformans (Cryptococcus neoformans) and with C. glabrata (Nakaseomyces glabratus) was over 11 µM throughout.

What is called MFC is the smallest concentration meeting the test's criterion for killing the fungus. The MIC is the lowest concentration found to suppress growth. A low value points to greater potency.

Source of the values: patent US10322187B2, “Reduced toxicity molecular conjugates of anti-fungal agents” (Lehigh University, priority 2015, dated 2019).
